Test results published in patent publication US10130096B2, “Method for protecting useful plants or plant propagation material” (SYNGENTA PARTICIPATIONS AG, priority 2011, dated 2018).

Tests used:
Pythium ultimum [1] = test: Pythium ultimum liquid culture growth inhibition; format: cell-based; conditions: Globisporangium ultimum, photometric, 2-3 days after application, read-out: control on Pythium ultimum
Procedure: Mycelia fragments and oospores of a newly grown liquid culture of the fungus are directly mixed into nutrient broth (PDB potato dextrose broth). After placing a (DMSO) solution of test compound into a microtiter plate (96-well format), the nutrient broth containing the fungal mycelia/spore mixture is added.

[2] = test system: Monographella nivalis (Microdochium nivale); test: Monographella nivalis liquid culture growth inhibition; format: cell-based; conditions: photometric, 4-5 days after application, read-out: control on Monographella nivalis
Procedure: (§1) Conidia of the fungus from cryogenic storage are directly mixed into nutrient broth (PDB potato dextrose broth). After placing a (DMSO) solution of test compound into a microtiter plate (96-well format), the nutrient broth containing the fungal spores is added. The test plates are incubated at 24° C. and the inhibition of growth is determined photometrically 4-5 days after application.

Alternaria solani = Alternaria solani on tomato plants; format: in vivo; conditions: 4-week old tomato plants cv. Roter Gnom, spray, inoculated two days after application
Procedure: 4-week old tomato plants cv. Roter Gnom are sprayed in a spray chamber with the formulated test compound diluted in water. The test plants are inoculated by spraying them with a spore suspension two days after application. The inoculated test plants are incubated at 22/18° C. (day/night) and 95% rh in a greenhouse and the percentage leaf area covered by disease is assessed when an appropriate level of disease appears on untreated check plants (5-7 days after application).

[3] = test system: Botryotinia fuckeliana (Botrytis cinerea); test: Botryotinia fuckeliana liquid culture growth inhibition; format: cell-based; conditions: photometric, 3-4 days after application, read-out: control on Botryotinia fuckeliana
Procedure: Conidia of the fungus from cryogenic storage are directly mixed into nutrient broth (Vogels broth). After placing a (DMSO) solution of test compound into a microtiter plate (96-well format), the nutrient broth containing the fungal spores is added.

Fusarium culmorum = Fusarium culmorum liquid culture growth inhibition; format: cell-based; conditions: photometric, 3-4 days after application, read-out: control on Fusarium culmorum
Procedure: as §1, with “3-4” for “4-5”

Pythium ultimum [4] = test: Pythium ultimum on Cotton/Pouch; format: in vivo; conditions: Globisporangium ultimum, 168 h, cotton, pouch, 7 days at 17° C.
Description: A spore/mycelium suspension is pipetted into the pouch simultaneously.

[5] = test system: Thanatephorus cucumeris (Rhizoctonia solani); test: Thanatephorus cucumeris liquid culture growth inhibition; format: cell-based; conditions: photometric, 3-4 days after application, read-out: control on Thanatephorus cucumeris
Procedure: Mycelia fragments of a newly grown liquid culture of the fungus are directly mixed into nutrient broth (PDB potato dextrose broth). After placing a (DMSO) solution of the test compounds into a microtiter plate (96-well format), the nutrient broth containing the fungal material is added. The test plates are incubated at 24° C. and the inhibition of growth is determined photometrically 3-4 days after application.

Pythium ultimum [6] = test: Example B-5: seed treatment against Pythium ultimum on cotton; format: in vivo; conditions: Globisporangium ultimum, rate of 200 g/100 kg seeds, infested soil, number of germinated, healthy plants
Procedure: The trial is kept for 1 week in a growth room at 20° C. and darkness. After this period the trial is transferred to a greenhouse where a temperature of 21° C. and a 14 h light period is provided until the trial is finished. The following assessments are made: number of germinated, healthy plants. Each number is determined for 150 seeds per treatment (3 replicates a 50 seeds).

[7] = test system: Mycosphaerella arachidis (Cercospora arachidicola); test: Mycosphaerella arachidis liquid culture growth inhibition; format: cell-based; conditions: photometric, 4-5 days after application, read-out: control on Mycosphaerella arachidis
Procedure: (§2) Conidia of the fungus from cryogenic storage are directly mixed into nutrient broth (PDB potato dextrose broth). After placing a (DMSO) solution of test compound into a microtiter plate (96-well format), the nutrient broth containing the fungal spores is added.

[8] = test system: Glomerella lagenarium (Colletotrichum lagenarium); test: Glomerella lagenarium liquid culture growth inhibition; format: cell-based; conditions: Colletotrichum orbiculare, photometric, 3-4 days after application, read-out: control on Glomerella lagenarium
Procedure: as §2

[9] = test system: Pseudoperonospora cubensis; test: Pseudoperonospora cubensis on Cucumber/Pouch; format: in vivo; conditions: 60 ppm; cucumber, pouch, inoculated 8 days after sowing, 7 days incubation
Description: 8 days after sowing cucumber plants were inoculated by spraying a spore suspension on the test plants.

Puccinia recondita = Puccinia recondita on Wheat/Pouch; format: in vivo; conditions: 20 ppm; wheat, pouch, inoculated 8 days after sowing, 8 days incubation
Procedure: 8 days after sowing wheat plants were inoculated by spraying a spore suspension on the test plants. After an incubation period of 8 days at 24° C./22° C.

SMILES | inhibition of growth at 200 ppm (Pythium ultimum [1]) | inhibition of growth at 200 ppm [2] | pest or weed control at 60 ppm (Alternaria solani) | inhibition of growth at 200 ppm [3] | inhibition of growth at 200 ppm (Fusarium culmorum) | pest or weed control at 20 ppm (Pythium ultimum [4]) | inhibition of growth at 200 ppm [5] | pest or weed control at 200 g/100 kg seeds (Pythium ultimum [6]) | inhibition of growth at 200 ppm [7] | inhibition of growth at 200 ppm [8] | control on Pseudoperonospora cubensis [9] | control on Puccinia recondita (Puccinia recondita)
OB1OCc2cc(Cl)ccc21 [Compound 1, 5-Chloro-3H-benzo[c][1,2]oxaborol-1-ol] | ≥ 80% | ≥ 80% | ≥ 60% | ≥ 80% | ≥ 80% | ≥ 50% | ≥ 80% | ≥ 50% | ≥ 80% | ≥ 80% | – | –
CCC(N)COB1OCc2cc(Cl)ccc21 (stereo not drawn) [Compound 2, 1-(5-Chloro-3H-benzo[c][1,2]oxaborol-1-yloxymethyl)-propylamine] | ≥ 80% | ≥ 80% | ≥ 60% | ≥ 80% | ≥ 80% | ≥ 50% | ≥ 80% | ≥ 50% | ≥ 80% | ≥ 80% | – | –
CNCCOB1OCc2cc(Cl)ccc21 [Compound 4, [2-(5-Chloro-3H-benzo[c][1,2]oxaborol-1-yloxy)-ethyl]-methyl-amine] | ≥ 80% | ≥ 80% | – | ≥ 80% | ≥ 80% | ≥ 50% | ≥ 80% | – | ≥ 80% | ≥ 80% | – | –
NCCCOB1OCc2cc(Cl)ccc21 [Compound 5, 3-(5-Chloro-3H-benzo[c][1,2]oxaborol-1-yloxy)-propylamine] | ≥ 80% | ≥ 80% | ≥ 60% | ≥ 80% | ≥ 80% | ≥ 50% | ≥ 80% | ≥ 50% | ≥ 80% | ≥ 80% | at least 50% | –
O=[N+]([O-])c1ccc2c(c1)B(O)OC2 [Compound 7, 6-Nitro-3H-benzo[c][1,2]oxaborol-1-ol] | ≥ 80% | ≥ 80% | ≥ 60% | – | – | ≥ 50% | – | – | ≥ 80% | ≥ 80% | – | at least 50%
OB1OCc2cc(F)ccc21 [Compound 8, 5-Fluoro-3H-benzo[c][1,2]oxaborol-1-ol] | ≥ 80% | ≥ 80% | ≥ 60% | ≥ 80% | ≥ 80% | ≥ 50% | ≥ 80% | ≥ 50% | ≥ 80% | ≥ 80% | – | –
NCC(=O)OB1OCc2cc(Cl)ccc21 [Compound 9, Amino-acetic acid 5-chloro-3H-benzo[c][1,2]oxaborol-1-yl ester] | ≥ 80% | ≥ 80% | – | ≥ 80% | ≥ 80% | ≥ 50% | – | – | ≥ 80% | ≥ 80% | – | –
NCCCOB1OCc2cc(F)ccc21 [Compound 12, 3-(5-Fluoro-3H-benzo[c][1,2]oxaborol-1-yloxy)-propylamine] | ≥ 80% | ≥ 80% | – | ≥ 80% | ≥ 80% | ≥ 50% | ≥ 80% | ≥ 50% | ≥ 80% | ≥ 80% | – | –
NCCCCOB1OCc2cc(F)ccc21 [Compound 13, 4-(5-Fluoro-3H-benzo[c][1,2]oxaborol-1-yloxy)-butylamine] | ≥ 80% | ≥ 80% | – | ≥ 80% | ≥ 80% | – | ≥ 80% | ≥ 50% | ≥ 80% | ≥ 80% | – | –
CCC(CN)OB1OCc2cc(Cl)ccc21 (stereo not drawn) [Compound 26, 2-(5-Chloro-3H-benzo[c][1,2]oxaborol-1-yloxy)-butylamine] | ≥ 80% | ≥ 80% | – | ≥ 80% | ≥ 80% | – | ≥ 80% | ≥ 50% | ≥ 80% | ≥ 80% | – | –
CCC(N)COB1OCc2cc(F)ccc21 (stereo not drawn) [Compound 30, 1-(5-Fluoro-3H-benzo[c][1,2]oxaborol-1-yloxymethyl)-propylamine] | ≥ 80% | ≥ 80% | – | ≥ 80% | ≥ 80% | – | ≥ 80% | ≥ 50% | ≥ 80% | ≥ 80% | – | –
